Measurements taken from ChEMBL document CHEMBL5465560, “Selectivity Literature for EUbOPEN Chemogenomic Library” (2024).

Columns and labels:
[1] = molecular target: Serine/threonine-protein kinase MRCK alpha (Homo sapiens) (UniProt Q5VT25); assay: Selectivity interaction (Kinase panel (Z-LYTE Assay)) EUB0001632a CDC42BPA; settings: at 10 µM
[2] = molecular target: Cyclin-dependent kinase 3 (Homo sapiens) (UniProt Q00526); assay: Selectivity interaction (KinomeScan (DiscoverX)) EUB0000607a CDK3; settings: at 10 µM
[3] = molecular target: T1, Ephrin type-A receptor 8 (Homo sapiens) (UniProt P29322); assay: Selectivity interaction (Upstate Kinase Profiler service (Millipore)) EUB0000056c EPHA8; settings: at 1 µM
T1 sequence (whole entry): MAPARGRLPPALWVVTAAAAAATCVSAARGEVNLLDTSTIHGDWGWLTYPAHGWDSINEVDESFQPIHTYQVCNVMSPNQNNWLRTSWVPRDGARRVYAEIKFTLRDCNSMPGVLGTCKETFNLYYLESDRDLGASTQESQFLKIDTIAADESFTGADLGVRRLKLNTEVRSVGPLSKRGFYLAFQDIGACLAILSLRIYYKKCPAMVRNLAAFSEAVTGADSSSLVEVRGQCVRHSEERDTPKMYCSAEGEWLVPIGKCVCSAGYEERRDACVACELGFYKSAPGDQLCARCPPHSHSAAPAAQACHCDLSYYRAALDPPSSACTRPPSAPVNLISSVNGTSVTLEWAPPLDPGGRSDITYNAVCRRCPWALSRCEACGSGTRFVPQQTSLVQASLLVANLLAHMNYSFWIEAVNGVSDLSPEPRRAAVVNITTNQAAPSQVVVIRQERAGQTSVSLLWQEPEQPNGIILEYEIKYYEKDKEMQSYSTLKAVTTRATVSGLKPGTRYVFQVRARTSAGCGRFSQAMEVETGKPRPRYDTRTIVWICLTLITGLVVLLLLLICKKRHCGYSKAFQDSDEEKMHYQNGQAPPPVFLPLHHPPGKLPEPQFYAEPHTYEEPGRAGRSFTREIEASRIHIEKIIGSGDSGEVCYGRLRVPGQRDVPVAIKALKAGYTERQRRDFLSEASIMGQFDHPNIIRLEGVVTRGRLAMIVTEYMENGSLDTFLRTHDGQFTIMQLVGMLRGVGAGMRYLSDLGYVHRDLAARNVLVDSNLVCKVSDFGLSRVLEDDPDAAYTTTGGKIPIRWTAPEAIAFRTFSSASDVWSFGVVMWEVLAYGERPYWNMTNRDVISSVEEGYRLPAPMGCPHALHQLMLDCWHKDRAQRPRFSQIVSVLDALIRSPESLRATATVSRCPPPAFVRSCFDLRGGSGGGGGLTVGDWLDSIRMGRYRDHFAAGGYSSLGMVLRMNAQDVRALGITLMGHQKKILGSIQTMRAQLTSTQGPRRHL

[4] = molecular target: T2, Serine/threonine-protein kinase NLK (Homo sapiens) (UniProt Q9UBE8); settings: at 10 µM
T2 sequence (whole entry): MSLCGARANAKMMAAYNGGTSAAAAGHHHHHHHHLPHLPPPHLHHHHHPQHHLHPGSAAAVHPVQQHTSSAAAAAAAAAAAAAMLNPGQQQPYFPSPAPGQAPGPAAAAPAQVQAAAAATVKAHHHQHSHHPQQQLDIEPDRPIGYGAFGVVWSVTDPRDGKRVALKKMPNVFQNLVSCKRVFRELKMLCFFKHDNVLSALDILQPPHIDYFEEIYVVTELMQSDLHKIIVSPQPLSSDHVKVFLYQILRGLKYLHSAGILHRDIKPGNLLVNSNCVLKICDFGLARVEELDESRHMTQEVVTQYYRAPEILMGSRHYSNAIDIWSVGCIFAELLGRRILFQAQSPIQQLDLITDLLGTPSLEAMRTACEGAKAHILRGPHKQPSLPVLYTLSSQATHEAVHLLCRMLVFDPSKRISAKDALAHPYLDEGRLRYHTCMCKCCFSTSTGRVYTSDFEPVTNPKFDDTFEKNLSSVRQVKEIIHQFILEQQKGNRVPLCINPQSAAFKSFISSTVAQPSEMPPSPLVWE

[5] = molecular target: Serine/threonine-protein kinase MARK2 (Homo sapiens) (UniProt Q7KZI7); assay: Selectivity interaction (ActivX KiNativ screen (kinase selectivity in THP-1 cell lysates)) EUB0000639a MARK2; type: subcellular; settings: lysate, at 0.01 µM
[6] = molecular target: Homeodomain-interacting protein kinase 1 (Homo sapiens, UniProt Q86Z02); assay: Selectivity interaction (ProQinase) EUB0000171b HIPK1
[7] = molecular target: Tyrosine-protein kinase CSK (Homo sapiens) (UniProt P41240); assay: Selectivity interaction (Kinase screening (Nanosyn)) EUB0000604a CSK
[8] = molecular target: Proto-oncogene tyrosine-protein kinase ROS (Homo sapiens) (UniProt P08922); assay: Selectivity interaction (Millipore kinase profiler) EUB0000124b ROS1; settings: at 10 µM
[9] = molecular target: T3, Serine/threonine-protein kinase BRSK2 (Homo sapiens) (UniProt Q8IWQ3); assay: Selectivity interaction (Ambit KINOMEscan and KiNATiv profiling in Jurkat cells) EUB0000090b BRSK2; type: cell-based; settings: at 1 µM
T3 sequence (whole entry): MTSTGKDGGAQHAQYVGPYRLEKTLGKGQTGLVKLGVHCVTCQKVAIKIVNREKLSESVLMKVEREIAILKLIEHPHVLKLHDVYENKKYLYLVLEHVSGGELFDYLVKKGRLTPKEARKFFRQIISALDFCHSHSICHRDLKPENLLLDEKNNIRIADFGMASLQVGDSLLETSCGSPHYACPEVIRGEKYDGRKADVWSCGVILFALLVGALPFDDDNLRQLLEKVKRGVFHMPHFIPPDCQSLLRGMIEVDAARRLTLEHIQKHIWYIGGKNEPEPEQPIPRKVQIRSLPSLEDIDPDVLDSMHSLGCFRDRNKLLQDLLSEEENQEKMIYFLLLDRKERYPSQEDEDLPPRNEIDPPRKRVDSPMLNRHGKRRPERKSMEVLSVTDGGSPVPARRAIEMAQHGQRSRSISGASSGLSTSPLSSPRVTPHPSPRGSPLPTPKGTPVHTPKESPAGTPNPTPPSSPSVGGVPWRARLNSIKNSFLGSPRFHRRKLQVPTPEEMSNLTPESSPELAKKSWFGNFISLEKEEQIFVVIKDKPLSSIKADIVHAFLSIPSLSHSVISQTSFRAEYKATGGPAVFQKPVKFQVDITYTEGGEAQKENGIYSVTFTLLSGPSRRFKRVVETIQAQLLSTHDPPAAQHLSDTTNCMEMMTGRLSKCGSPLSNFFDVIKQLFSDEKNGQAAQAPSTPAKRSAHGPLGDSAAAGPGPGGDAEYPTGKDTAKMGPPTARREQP

[10] = molecular target: STE20/SPS1-related proline-alanine-rich protein kinase (Homo sapiens) (UniProt Q9UEW8); assay: Selectivity interaction (Kinome Scan (DiscoverX)) EUB0000229b STK39; settings: at 10 µM
[11] = molecular target: Wee1-like protein kinase 2 (Homo sapiens) (UniProt P0C1S8); assay: Selectivity interaction (KinomeScan (DiscoverX)) EUB0000618a WEE2; settings: at 10 µM

Sequence of Homeodomain-interacting protein kinase 1 (Q86Z02 whole entry, looked up): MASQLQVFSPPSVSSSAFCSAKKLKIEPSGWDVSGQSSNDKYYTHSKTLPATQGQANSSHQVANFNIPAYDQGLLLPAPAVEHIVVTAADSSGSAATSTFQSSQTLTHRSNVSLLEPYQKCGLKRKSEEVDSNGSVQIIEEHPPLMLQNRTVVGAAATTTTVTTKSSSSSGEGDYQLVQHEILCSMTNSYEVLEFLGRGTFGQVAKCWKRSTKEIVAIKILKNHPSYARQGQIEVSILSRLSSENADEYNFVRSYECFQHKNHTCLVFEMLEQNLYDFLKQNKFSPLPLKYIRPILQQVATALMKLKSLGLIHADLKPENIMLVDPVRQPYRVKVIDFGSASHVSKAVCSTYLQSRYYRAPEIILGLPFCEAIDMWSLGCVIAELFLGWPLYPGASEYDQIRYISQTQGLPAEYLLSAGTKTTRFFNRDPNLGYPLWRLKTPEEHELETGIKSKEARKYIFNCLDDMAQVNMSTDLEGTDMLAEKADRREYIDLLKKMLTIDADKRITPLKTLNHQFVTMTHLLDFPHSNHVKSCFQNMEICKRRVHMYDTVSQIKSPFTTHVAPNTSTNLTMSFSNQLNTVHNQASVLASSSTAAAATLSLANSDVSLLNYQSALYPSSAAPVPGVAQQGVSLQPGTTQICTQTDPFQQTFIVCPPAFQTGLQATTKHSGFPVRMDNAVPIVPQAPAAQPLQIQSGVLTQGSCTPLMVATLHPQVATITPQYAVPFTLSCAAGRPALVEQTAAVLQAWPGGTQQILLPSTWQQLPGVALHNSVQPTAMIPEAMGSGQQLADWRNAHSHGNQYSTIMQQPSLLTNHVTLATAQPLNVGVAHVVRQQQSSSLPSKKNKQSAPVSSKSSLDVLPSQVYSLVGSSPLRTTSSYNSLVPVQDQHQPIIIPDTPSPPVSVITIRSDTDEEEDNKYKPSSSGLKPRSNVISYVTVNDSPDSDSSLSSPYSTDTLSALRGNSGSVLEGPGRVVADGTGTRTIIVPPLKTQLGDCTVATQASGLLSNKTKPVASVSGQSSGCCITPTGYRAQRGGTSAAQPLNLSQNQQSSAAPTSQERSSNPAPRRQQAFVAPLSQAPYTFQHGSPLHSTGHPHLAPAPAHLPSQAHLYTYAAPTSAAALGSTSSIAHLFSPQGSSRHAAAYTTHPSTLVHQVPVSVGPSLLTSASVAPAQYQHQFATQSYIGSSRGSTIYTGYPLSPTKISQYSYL
Sequence of Serine/threonine-protein kinase MARK2 (Homo sapiens) (Q7KZI7 whole entry): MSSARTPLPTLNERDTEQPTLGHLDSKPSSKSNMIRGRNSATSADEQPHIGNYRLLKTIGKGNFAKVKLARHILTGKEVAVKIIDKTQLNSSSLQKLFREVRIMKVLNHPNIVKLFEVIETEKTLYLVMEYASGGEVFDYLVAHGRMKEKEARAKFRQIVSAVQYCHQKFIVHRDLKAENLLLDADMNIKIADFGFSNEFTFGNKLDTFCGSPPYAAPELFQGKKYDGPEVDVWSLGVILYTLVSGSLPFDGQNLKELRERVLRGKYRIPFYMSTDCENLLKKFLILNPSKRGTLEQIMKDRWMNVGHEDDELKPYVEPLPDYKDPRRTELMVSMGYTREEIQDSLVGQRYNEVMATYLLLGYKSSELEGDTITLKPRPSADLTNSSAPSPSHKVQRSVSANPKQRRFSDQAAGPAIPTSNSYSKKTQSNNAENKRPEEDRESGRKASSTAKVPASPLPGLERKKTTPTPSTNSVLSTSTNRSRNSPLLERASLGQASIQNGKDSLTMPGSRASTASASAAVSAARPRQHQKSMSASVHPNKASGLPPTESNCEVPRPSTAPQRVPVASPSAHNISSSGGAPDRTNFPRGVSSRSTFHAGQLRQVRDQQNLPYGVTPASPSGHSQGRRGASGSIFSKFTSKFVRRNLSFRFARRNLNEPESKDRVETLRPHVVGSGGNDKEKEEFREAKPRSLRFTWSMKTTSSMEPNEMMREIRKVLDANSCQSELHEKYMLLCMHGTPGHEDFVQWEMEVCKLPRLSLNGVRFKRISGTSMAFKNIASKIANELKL
Sequence of Cyclin-dependent kinase 3 (Homo sapiens) (Q00526 whole entry, looked up): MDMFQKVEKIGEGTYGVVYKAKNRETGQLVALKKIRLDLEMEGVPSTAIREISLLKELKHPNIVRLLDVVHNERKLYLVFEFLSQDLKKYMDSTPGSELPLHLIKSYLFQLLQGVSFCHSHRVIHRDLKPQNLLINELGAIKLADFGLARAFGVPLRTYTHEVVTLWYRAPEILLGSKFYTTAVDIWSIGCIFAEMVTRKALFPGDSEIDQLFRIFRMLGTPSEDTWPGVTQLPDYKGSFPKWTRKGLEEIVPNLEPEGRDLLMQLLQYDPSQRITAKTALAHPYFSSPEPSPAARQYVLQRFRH
Sequence of Tyrosine-protein kinase CSK (Homo sapiens) (P41240 2-450 limits assumed): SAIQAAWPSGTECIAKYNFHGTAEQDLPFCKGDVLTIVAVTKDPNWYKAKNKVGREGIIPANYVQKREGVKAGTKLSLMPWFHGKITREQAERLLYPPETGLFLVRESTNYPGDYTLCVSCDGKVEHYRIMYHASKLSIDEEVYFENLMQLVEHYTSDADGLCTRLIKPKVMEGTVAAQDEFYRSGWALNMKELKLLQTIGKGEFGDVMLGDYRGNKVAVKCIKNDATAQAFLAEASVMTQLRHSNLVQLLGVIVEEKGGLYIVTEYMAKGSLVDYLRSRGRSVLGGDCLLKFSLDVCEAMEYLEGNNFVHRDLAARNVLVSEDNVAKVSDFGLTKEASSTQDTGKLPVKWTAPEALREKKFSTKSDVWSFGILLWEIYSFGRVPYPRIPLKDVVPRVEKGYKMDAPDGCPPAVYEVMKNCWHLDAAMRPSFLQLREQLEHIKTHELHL
Sequence of Proto-oncogene tyrosine-protein kinase ROS (Homo sapiens) (P08922 whole entry): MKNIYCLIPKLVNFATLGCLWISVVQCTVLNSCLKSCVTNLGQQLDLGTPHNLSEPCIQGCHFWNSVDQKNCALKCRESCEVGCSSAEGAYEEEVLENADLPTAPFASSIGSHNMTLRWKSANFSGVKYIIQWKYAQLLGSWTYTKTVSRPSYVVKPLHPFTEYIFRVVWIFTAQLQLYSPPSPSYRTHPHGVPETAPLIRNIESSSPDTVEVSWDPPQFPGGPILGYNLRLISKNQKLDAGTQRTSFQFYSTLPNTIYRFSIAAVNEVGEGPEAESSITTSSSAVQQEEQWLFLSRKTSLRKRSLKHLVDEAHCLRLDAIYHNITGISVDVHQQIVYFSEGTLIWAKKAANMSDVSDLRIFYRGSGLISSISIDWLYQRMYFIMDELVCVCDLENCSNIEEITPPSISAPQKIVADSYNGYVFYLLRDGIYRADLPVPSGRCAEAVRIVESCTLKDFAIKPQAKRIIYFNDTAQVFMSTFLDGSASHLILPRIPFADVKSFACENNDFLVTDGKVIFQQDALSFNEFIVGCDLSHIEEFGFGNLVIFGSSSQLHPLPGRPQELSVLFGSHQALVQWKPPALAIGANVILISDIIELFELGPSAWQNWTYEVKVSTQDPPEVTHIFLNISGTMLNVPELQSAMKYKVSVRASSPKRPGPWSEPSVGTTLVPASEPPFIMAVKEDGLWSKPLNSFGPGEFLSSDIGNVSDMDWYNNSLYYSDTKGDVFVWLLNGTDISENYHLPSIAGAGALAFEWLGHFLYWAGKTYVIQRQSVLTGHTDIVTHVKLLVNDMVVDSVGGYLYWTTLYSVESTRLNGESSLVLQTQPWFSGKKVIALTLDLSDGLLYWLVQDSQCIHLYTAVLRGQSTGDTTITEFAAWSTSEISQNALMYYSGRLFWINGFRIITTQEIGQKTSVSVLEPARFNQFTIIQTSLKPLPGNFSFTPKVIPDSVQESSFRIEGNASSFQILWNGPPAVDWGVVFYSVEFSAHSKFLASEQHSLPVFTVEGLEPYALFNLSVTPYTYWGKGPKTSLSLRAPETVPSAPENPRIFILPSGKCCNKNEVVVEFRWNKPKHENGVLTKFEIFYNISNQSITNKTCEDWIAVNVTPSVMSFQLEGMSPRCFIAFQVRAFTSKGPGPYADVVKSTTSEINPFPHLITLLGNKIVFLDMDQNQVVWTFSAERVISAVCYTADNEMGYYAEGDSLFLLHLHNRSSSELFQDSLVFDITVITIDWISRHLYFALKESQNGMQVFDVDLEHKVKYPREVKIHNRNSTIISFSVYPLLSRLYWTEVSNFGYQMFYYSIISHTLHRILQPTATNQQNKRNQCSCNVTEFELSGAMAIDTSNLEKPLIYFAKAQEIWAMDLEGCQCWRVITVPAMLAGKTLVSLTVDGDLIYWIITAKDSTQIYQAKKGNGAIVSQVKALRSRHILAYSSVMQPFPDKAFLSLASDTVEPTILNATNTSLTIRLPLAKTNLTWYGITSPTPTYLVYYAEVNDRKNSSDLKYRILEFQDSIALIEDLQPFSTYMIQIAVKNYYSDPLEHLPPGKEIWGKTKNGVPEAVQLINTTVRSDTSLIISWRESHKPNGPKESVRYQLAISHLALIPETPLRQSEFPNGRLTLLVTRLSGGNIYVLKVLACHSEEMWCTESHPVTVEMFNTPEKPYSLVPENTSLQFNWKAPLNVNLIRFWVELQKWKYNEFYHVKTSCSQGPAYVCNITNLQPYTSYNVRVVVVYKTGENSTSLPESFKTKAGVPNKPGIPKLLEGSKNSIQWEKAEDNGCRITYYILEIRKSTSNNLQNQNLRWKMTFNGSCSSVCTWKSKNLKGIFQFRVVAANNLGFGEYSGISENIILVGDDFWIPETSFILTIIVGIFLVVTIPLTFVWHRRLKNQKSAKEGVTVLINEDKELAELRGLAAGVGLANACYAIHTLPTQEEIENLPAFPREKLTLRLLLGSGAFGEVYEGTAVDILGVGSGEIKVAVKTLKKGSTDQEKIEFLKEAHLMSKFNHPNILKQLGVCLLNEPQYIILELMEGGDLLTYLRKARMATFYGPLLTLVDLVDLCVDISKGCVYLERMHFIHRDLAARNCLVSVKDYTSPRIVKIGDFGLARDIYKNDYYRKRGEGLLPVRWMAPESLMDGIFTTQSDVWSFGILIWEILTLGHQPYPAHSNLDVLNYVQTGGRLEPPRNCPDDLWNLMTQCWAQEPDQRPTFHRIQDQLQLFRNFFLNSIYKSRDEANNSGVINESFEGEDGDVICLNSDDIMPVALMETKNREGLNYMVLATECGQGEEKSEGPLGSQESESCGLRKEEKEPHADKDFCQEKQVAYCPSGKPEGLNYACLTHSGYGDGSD

Cn1cc(-n2cnc3c(NCc4nc5cc(Cl)c(Cl)cc5[nH]4)nc(N4CCOCC4)nc32)cn1
% of control [1]: -5.27%

CNC(=O)Nc1ccc(-c2nc(N3CC4CCC(C3)O4)c3cnn(C4CCC5(CC4)OCCO5)c3n2)cc1
% of control [2]: 99%

Cc1ccc(-c2ccc3c(ccc4sc5c(c43)NC[C@@H](C)NC5=O)n2)cn1
% of inhibition [3]: 1%

CCN(CC)CCCCNc1ncc2cc(-c3cc(OC)cc(OC)c3)c(NC(=O)NC(C)(C)C)nc2n1
% of control [4]: 100%

CC[C@@H]1[C@H](F)C(=O)N[C@@H]1COc1nccc2cc(C(N)=O)c(OC)cc12 [ZIMLOVISERTIB]
% of inhibition [5]: 2.3%

C=CC(=O)Nc1cccc(C(=O)Nc2ccc(Nc3cc(-c4[nH]c(SC)nc4C)ccn3)cc2)c1
% of control ([6]; at 1 µM): 103%
% of control ([6]; at 5 µM): 143%

Cc1cnc(Nc2ccc(F)cc2Cl)nc1-c1c[nH]c(C(=O)N[C@H](CO)c2cccc(Cl)c2)c1
% of inhibition [7]: 3%

CC(=O)Nc1cccc(-n2c(=O)n(C3CC3)c(=O)c3c(Nc4ccc(I)cc4F)n(C)c(=O)c(C)c32)c1
% of control [8]: 107%

CN(C)C/C=C/C(=O)Nc1ccc(C(=O)N2CCCC(Nc3ncc(Cl)c(-c4c[nH]c5ccccc45)n3)C2)cc1 (configuration not stated)
% of control [9]: 100%

COc1cc(N(C)c2ccnc3ccc(C(F)(F)F)cc23)cc(OC)c1OC
% binding [10]: 98%

O[C@H]1CC[C@H](Nc2ncc3nc(Nc4c(F)cc(F)cc4F)n([C@H]4CCOC4)c3n2)CC1
% of control [11]: 98%
